Read-outs that look alike come from different tables or passages of the source.
Target: T1, G protein-coupled receptor 119 (GPR-119) (Mesocricetus auratus, UniProt A0A1U8CD06)
T1 construct: hamster-derived β-cells containing G protein-coupled receptor 119 (GPR-119), HIT-T15 cells; host or cells: HIT-T15 (hamster pancreatic β-cells)
T1 sequence (A0A1U8CD06 1-334): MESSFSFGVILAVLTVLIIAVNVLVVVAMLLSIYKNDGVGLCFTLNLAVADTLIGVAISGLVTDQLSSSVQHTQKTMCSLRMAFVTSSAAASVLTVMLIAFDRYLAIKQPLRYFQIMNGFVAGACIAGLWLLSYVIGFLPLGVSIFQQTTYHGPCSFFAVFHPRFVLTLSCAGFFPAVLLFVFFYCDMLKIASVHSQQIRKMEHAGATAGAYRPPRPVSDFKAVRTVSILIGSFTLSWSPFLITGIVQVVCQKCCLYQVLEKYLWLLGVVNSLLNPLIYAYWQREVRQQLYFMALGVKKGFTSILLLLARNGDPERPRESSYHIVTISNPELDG
Test: Evaluation of cAMP activity in HIT-T15 cells (HTRF cAMP dynamic kit)
Assay type: cell-based, hamster
Settings: cAMP activation
In short: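 HIT-T15 cells, 60,000/well, treated next day with compound at six concentrations ([…]) for 1 h at 37° C. Lysate cAMP quantified by HTRF competitive immunoassay (D2-cAMP, cryptate anti-cAMP); activity taken as change in FRET signal relative to DMSO.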

[1] = 1 h at 37° C., six concentrations, read-out: EC50

Row | Structure (SMILES) | EC50 [1] [nM] | EC50 (read-out: EC50 value) [nM] | EC50 (EC50 (nM), 1 h at 37° C., six concentrations) [nM] | EC50 (EC50 value) [nM]
1 | C[C@@H](CO)NC(=O)C1CC=C(c2ccc(OCC3CCN(C(=O)OC(C)(C)C)CC3)cc2F)CC1 (stereo partly drawn) [Example 130, tert-butyl 4-((3-fluoro-4-(4-((S)-1-hydroxypropan-2-ylcarbamoyl)cyclohex-1-enyl)phenoxy)methyl)piperidine-1-carboxylate] | 90 | – | – | –
2 | CC(C)c1noc(N2CCC(COc3ccc(C4=CCC(C(=O)N5CCN(C6CC6)CC5)CC4)cc3)CC2)n1 (stereo not shown) [Example 89, (4-cyclopropylpiperazin-1-yl)(4-(4-((1-(3-isopropyl-1,2,4-oxadiazol-5-yl)piperidin-4-yl)methoxy)phenyl)cyclohex-3-enyl)methanone] | 21 | ≤ 50 | – | –
3 | CC(C)c1noc(N2CCC(COc3ccc(C4=CCC(C(=O)N5CCC(CCO)CC5)CC4)cc3)CC2)n1 (stereo not shown) [Example 186, (4-(2-hydroxyethyl)piperidin-1-yl)(4-(4-((1-(3-isopropyl-1,2,4-oxadiazol-5-yl)piperidin-4-yl)methoxy)phenyl)cyclohex-3-enyl)methanone] | – | ≤ 50 | – | –
4 | CC(C)(C)OC(=O)N1CCC(COc2ccc(C3=CCC(C(=O)N4CCC(O)CC4)CC3)cc2)CC1 (stereo not shown) [Example 225, tert-butyl 4-((4-(4-(4-hydroxypiperidine-1-carbonyl)cyclohex-1-enyl)phenoxy)methyl)piperidine-1-carboxylate] | 22 | ≤ 50 | – | –
5 | CC(C)(C)OC(=O)N1CCC(COc2ccc(C3=CCC(C(=O)NC(CO)CO)CC3)cn2)CC1 (stereo not shown) [Example 68, tert-butyl 4-((5-(4-(1,3-dihydroxypropan-2-ylcarbamoyl)cyclohex-1-enyl)pyridin-2-yloxy)methyl)piperidine-1-carboxylate] | 300 | – | – | –
6 | CC(C)(C)OC(=O)N1CCC(COc2ccc(C3=CCC(C(=O)NC[C@@H](O)CO)CC3)c(F)c2)CC1 (stereo partly drawn) [Example 131, tert-butyl 4-((4-(4-((R)-2,3-dihydroxypropylcarbamoyl)cyclohex-1-enyl)-3-fluorophenoxy)methyl)piperidine-1-carboxylate] | 150 | – | – | –
7 | CC(C)(C)OC(=O)N1CCC(COc2ccc(C3=CCC(C(=O)N4CCS(=O)(=O)CC4)CC3)cc2F)CC1 (stereo not shown) [Example 73, tert-butyl 4-((2-fluoro-4-(4-(thiomorpholine-1,1-dioxide-4-carbonyl)cyclohex-1-enyl)phenoxy)methyl)piperidine-1-carboxylate] | 11 | ≤ 50 | – | –
8 | CC(C)(C)OC(=O)N1CCC(COc2ccc(C3=CCC(C(=O)N4CCSCC4)CC3)cn2)CC1 (stereo not shown) [Example 72, tert-butyl 4-((5-(4-(thiomorpholine-4-carbonyl)cyclohex-1-enyl)pyridin-2-yloxy)methyl)piperidine-1-carboxylate] | 25 | ≤ 50 | – | –
9 | CCc1cnc(N2CCC(COc3ccc(C4=CCC(C(=O)N5CCC(=O)CC5)CC4)cc3)CC2)nc1 (stereo not shown) [Example 274, 1-(4-(4-((1-(5-ethylpyrimidin-2-yl)piperidin-4-yl)methoxy)phenyl)cyclohex-3-enecarbonyl)piperidin-4-one] | – | – | 27 | ≤ 50
10 | CC(C)c1noc(N2CCC(COc3ccc(C4=CCC(C(=O)N5CCOCC5)CC4)cc3)CC2)n1 (stereo not shown) [Example 66, (4-(4-((1-(3-isopropyl-1,2,4-oxadiazol-5-yl)piperidin-4-yl)methoxy)phenyl)cyclohex-3-enyl)(morpholino)methanone] | 18 | ≤ 50 | – | –
11 | CC(C)c1noc(N2CCC(COc3ccc(C4=CCC(C(=O)N[C@H](C)CO)CC4)cc3F)CC2)n1 (stereo partly drawn) [Example 84, 4-(3-fluoro-4-((1-(3-isopropyl-1,2,4-oxadiazol-5-yl)piperidin-4-yl)methoxy)phenyl)-N-((R)-1-hydroxypropan-2-yl)cyclohex-3-enecarboxamide] | 30 | ≤ 50 | – | –
12 | CC(C)c1noc(N2CCC(COc3ccc(C4=CCC(C(=O)N5CC[C@@H](F)C5)CC4)nc3)CC2)n1 (stereo partly drawn) [Example 101, ((R)-3-fluoropyrrolidin-1-yl)(4-(5-((1-(3-isopropyl-1,2,4-oxadiazol-5-yl)piperidin-4-yl)methoxy)pyridin-2-yl)cyclohex-3-enyl)methanone] | 110 | – | – | –
13 | CC(C)c1noc(N2CCC(COc3ccc(C4=CCC(C(=O)N(C)CCO)CC4)cc3F)CC2)n1 (stereo not shown) [Example 81, 4-(3-fluoro-4-((1-(3-isopropyl-1,2,4-oxadiazol-5-yl)piperidin-4-yl)methoxy)phenyl)-N-(2-hydroxyethyl)-N-methylcyclohex-3-enecarboxamide] | 9 | ≤ 50 | – | –
14 | CCc1cnc(N2CCC(COc3ccc(C4=CCC(C(=O)N5CCOCC5)CC4)cc3)CC2)nc1 (stereo not shown) [Example 13, (4-(4-((1-(5-ethylpyrimidin-2-yl)piperidin-4-yl)methoxy)phenyl)cyclohex-3-enyl)(morpholino)methanone] | 13 | ≤ 50 | – | –
15 | CC(C)(C)OC(=O)N1CCC(COc2ccc(C3=CCC(C(=O)N4CCC[C@H]4C(N)=O)CC3)cc2F)CC1 (stereo partly drawn) [Example 107, tert-butyl 4-((4-(4-((S)-2-carbamoylpyrrolidine-1-carbonyl)cyclohex-1-enyl)-2-fluorophenoxy)methyl)piperidine-1-carboxylate] | 35 | ≤ 50 | – | –
16 | CCc1cnc(N2CCC(COc3ccc(C4=CCC(C(=O)N5CCN(CC6CC6)CC5)CC4)cc3)CC2)nc1 (stereo not shown) [Example 124, (4-(cyclopropylmethyl)piperazin-1-yl)(4-(4-((1-(5-ethylpyrimidin-2-yl)piperidin-4-yl)methoxy)phenyl)cyclohex-3-enyl)methanone] | 100 | – | – | –
17 | CC(C)c1noc(N2CCC(COc3ccc(C4=CCC(C(=O)NC(CO)CO)CC4)nc3)CC2)n1 (stereo not shown) [Example 46, N-(1,3-dihydroxypropan-2-yl)-4-(5-((1-(3-isopropyl-1,2,4-oxadiazol-5-yl)piperidin-4-yl)methoxy)pyridin-2-yl)cyclohex-3-enecarboxamide] | 500 | – | – | –
18 | CC(C)c1noc(N2CCC(COc3ccc(C4=CCC(C(=O)NCCC(=O)N5CCOCC5)CC4)cc3F)CC2)n1 (stereo not shown) [Example 113, 4-(3-fluoro-4-((1-(3-isopropyl-1,2,4-oxadiazol-5-yl)piperidin-4-yl)methoxy)phenyl)-N-(3-morpholino-3-oxopropyl)cyclohex-3-enecarboxamide] | 68 | – | – | –
19 | CC(C)c1noc(N2CCC(COc3ccc(C4=CCC(C(=O)N5CC[C@H](F)C5)CC4)cc3)CC2)n1 (stereo partly drawn) [Example 53, ((S)-3-fluoropyrrolidin-1-yl)(4-(4-((1-(3-isopropyl-1,2,4-oxadiazol-5-yl)piperidin-4-yl)methoxy)phenyl)cyclohex-3-enyl)methanone] | 21 | ≤ 50 | – | –
20 | CC(C)(C)OC(=O)N1CCC(COc2ccc(C3=CCC(C(=O)NC[C@H](O)CO)CC3)cc2F)CC1 (stereo partly drawn) [Example 63, tert-butyl 4-((4-(4-((S)-2,3-dihydroxypropylcarbamoyl)cyclohex-1-enyl)-2-fluorophenoxy)methyl)piperidine-1-carboxylate] | 110 | – | – | –
